Source: patent US20240174690A1, “ANNULATED 2-AMINO-3-CYANO THIOPHENES AND DERIVATIVES FOR THE TREATMENT OF CANCER” (BOEHRINGER INGELHEIM INTERNATIONAL GMBH, priority 2021, published 2024)
In brackets after ≈: the same amount, converted by molar mass. Read-outs that look alike come from different tables or passages of the source.

How the values were obtained:
[1] = system: KRAS G12D-dependent Ba/F3 cells; assay: Ba/F3 proliferation assay, KRAS G12D; assay type: cell-based; conditions: AlamarBlue
Method in brief: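 Viability is measured as AlamarBlue fluorescence in Ba/F3 cells that depend on a transduced mutant KRAS isoform for growth without IL-3. Each treatment is run in technical duplicate, and dose-response curves are fitted.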

[2] = target: KRAS (G12D)::SOS1 (Homo sapiens (Human), UniProt P01116, G12D); assay: KRAS::SOS1 AlphaScreen binding assay, KRAS G12D
Method in brief: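 KRAS 1-169 (biotinylated avi-tag) with GST-SOS1 564-1049 and 10 µM GDP in PBS/0.1% BSA/0.05% Tween 20: WT and G13D 10 nM each with 10 nM SOS1; G12D 10 nM and G12C 7.5 nM with 5 nM SOS1. After 30 min, glutathione acceptor/streptavidin donor beads were added for 60 min at RT in the dark, then AlphaScreen read; 4-parameter IC50.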

[3] = Solubility measurement (DMSO solution method), McIlvaine buffer pH 4.5 or 6.8; assay type: physicochemical; conditions: DMSO stock diluted to 250 μM, 24 h shaking at ambient temperature; for solubility at 24 h: aqueous buffer, kinetic from dmso stock
Method in brief: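 DMSO stock diluted into McIlvaine buffer, pH 4.5 or 6.8, to 250 µM final, shaken 24 h at ambient temperature. Precipitate removed by filtration; filtrate quantified by LC-UV against a fully dissolved reference in acetonitrile/water 1:1.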

[4] = McIlvaine buffer pH 4.5, read-out: solubility pH 4.5
[5] = McIlvaine buffer pH 6.8, read-out: solubility pH 6.8

Sequence of KRAS (G12D)::SOS1 (P01116 other isoform, or with tags, fused parts or gaps G12D): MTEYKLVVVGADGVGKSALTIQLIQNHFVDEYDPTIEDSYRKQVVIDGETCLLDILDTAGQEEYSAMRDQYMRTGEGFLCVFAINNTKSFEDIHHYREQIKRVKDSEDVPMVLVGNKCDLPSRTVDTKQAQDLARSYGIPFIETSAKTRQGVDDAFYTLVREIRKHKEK

Row | Structure (SMILES) | IC50 ([1]; Mus musculus, BaF3, 72 h) | IC50 [2] | solubility at 24 h [3, 4] | solubility at 24 h [3, 5] | IC50 ([1]; 72 h) | solubility pH 4.5 ([3]; McIlvaine buffer pH 4.5) | solubility pH 6.8 ([3]; McIlvaine buffer pH 6.8)
1 | COc1c(O[C@@H](C)[C@@H]2CCCN2C)nc(-c2noc3c2CCC[C@@]32CCCc3sc(N)c(C#N)c32)nc1-n1ccc(C(N)=O)n1 [II-159] | 366 nM | 6 nM | 0.125 mg/mL (≈ 198 µM) | 0.125 mg/mL (≈ 198 µM) |  |  | 
2 | CO[C@@H]1C[C@@H]([C@H](C)Oc2cc(N3CCNC4(CC4)C3)nc(-c3noc4c3CCC[C@@]43CCCc4sc(N)c(C#N)c43)n2)N(C)C1 [II-187] | 3 nM | 1 nM | > 0.14 mg/mL | 0.119 mg/mL (≈ 189 µM) |  |  | 
3 | C[C@H](Oc1cc(-n2cc3c(n2)CNC3)nc(-c2noc3c2CCC[C@@]32CCCc3sc(N)c(C#N)c32)n1)[C@@H]1C[C@@H](F)CN1C [II-154] | 82 nM | 1 nM | > 0.144 mg/mL | 0.017 mg/mL (≈ 27.6 µM) |  |  | 
4 | CC(=O)N1CCN(c2cc(O[C@@H](C)[C@@H]3CCCN3C)nc(-c3noc4c3CCC[C@@]43CCCc4sc(N)c(C#N)c43)n2)CC12CC2 [II-178] | 85 nM | 2 nM | 0.127 mg/mL (≈ 198 µM) | 0.11 mg/mL (≈ 171 µM) |  |  | 
5 | C[C@H](Oc1cc(N2Cc3cnn(C)c3C2)nc(-c2onc3c2CCC[C@@]32CCCc3sc(N)c(C#N)c32)n1)[C@@H]1CCCN1C [I-19] | 165 nM | 12 nM | 0.048 mg/mL (≈ 78.5 µM) | 0.014 mg/mL (≈ 22.9 µM) |  |  | 
6 | C[C@H](Oc1cc(N2C[C@@H]3[C@@H](N)[C@@H]3C2)nc(-c2noc3c2CCC[C@@]32CCCc3sc(N)c(C#N)c32)n1)[C@@H]1CCCN1C [II-167] | 614 nM | 2 nM | > 0.153 mg/mL | > 0.142 mg/mL |  |  | 
7 | C[C@H](Oc1cc(N2CC3COCC(C2)N3)nc(-c2noc3c2CCC[C@@]32CCCc3sc(N)c(C#N)c32)n1)[C@@H]1CCCN1C [II-160] | 429 nM | 2 nM |  |  |  |  | 
8 | CC(C)N1CCCN(c2cc(-c3ccn(C)n3)nc(-c3noc4c3CCC[C@@]43CCCc4sc(N)c(C#N)c43)n2)[C@@H](C)C1 [II-170] | 89 nM | 9 nM | 0.118 mg/mL (≈ 197 µM) | 0.024 mg/mL (≈ 40.1 µM) |  |  | 
9 | C[C@H]1CNCCCN1c1cc(-c2ccn(C)n2)nc(-c2noc3c2CCC[C@@]32CCCc3sc(N)c(C#N)c32)n1 [II-140] | 2240 nM | 22 nM | 0.082 mg/mL (≈ 148 µM) | 0.008 mg/mL (≈ 14.4 µM) |  |  | 
10 | C[C@H](Oc1cc(-c2cccc(C(N)=O)c2)nc(-c2noc3c2CCC[C@@]32CCCc3sc(N)c(C#N)c32)n1)[C@@H]1CCCN1C [II-133] | 248 nM | 6 nM | 0.003 mg/mL (≈ 4.92 µM) | < 0.001 mg/mL |  |  | 
11 | C[C@H](Oc1cc(-n2ccc(C(=O)N[C@H]3CCOC3)n2)nc(-c2noc3c2CCC[C@@]32CCCc3sc(N)c(C#N)c32)n1)[C@@H]1CCCN1C [II-193] |  | 1 nM |  |  | 9 nM | 15 μg/ml | <1 μg/ml
12 | C[C@H](Oc1cc(-n2ccc(C(=O)N[C@@H]3CCOC3)n2)nc(-c2noc3c2CCC[C@@]32CCCc3sc(N)c(C#N)c32)n1)[C@@H]1CCCN1C [II-192] | 13 nM | 1 nM | 0.124 mg/mL (≈ 185 µM) | 0.059 mg/mL (≈ 88.1 µM) |  |  | 
13 | CO[C@H]1CCN(C)[C@@H]1[C@H](C)Oc1cc(N2CCNC3(CC3)C2)nc(-c2noc3c2CCC[C@@]32CCCc3sc(N)c(C#N)c32)n1 [II-184] | 1 nM | 1 nM | > 0.158 mg/mL | > 0.147 mg/mL |  |  | 
14 | C[C@H](Oc1cc(-n2ccc(C(=O)N(C)C3COC3)n2)nc(-c2noc3c2CCC[C@@]32CCCc3sc(N)c(C#N)c32)n1)[C@@H]1CCCN1C [II-194] | 22 nM | 1 nM | 0.116 mg/mL (≈ 173 µM) | 0.031 mg/mL (≈ 46.3 µM) |  |  | 
15 | C[C@H](Oc1cc(-c2ccn(C[C@H]3CCOC3)n2)nc(-c2noc3c2CCC[C@@]32CCCc3sc(N)c(C#N)c32)n1)[C@@H]1CCCN1C [II-129] | 92 nM | 3 nM | > 0.13 mg/mL | 0.015 mg/mL (≈ 23.4 µM) |  |  | 
16 | CO[C@H]1CCN(C)[C@@H]1[C@H](C)Oc1cc(-n2ccc(C(=O)N[C@H]3CCOC3)n2)nc(-c2noc3c2CCC[C@@]32CCCc3sc(N)c(C#N)c32)n1 [II-198] | 4 nM | 1 nM | 0.012 mg/mL (≈ 17.1 µM) | < 0.001 mg/mL |  |  | 
17 | C[C@H](Oc1nc(-c2noc3c2CCC[C@@]32CCCc3sc(N)c(C#N)c32)nc(N2CCNC3(CC3)C2)c1F)[C@@H]1C[C@@H](F)CN1C [II-155] | 6 nM | 1 nM | > 0.153 mg/mL | 0.003 mg/mL (≈ 4.71 µM) |  |  | 
18 | C[C@H](Oc1cc(-n2ccc(-c3cn([C@@H]4CCOC4)nn3)n2)nc(-c2noc3c2CCC[C@@]32CCCc3sc(N)c(C#N)c32)n1)[C@@H]1CCCN1C [II-211] | 28 nM | 1 nM | 0.02 mg/mL (≈ 28.8 µM) | 0.004 mg/mL (≈ 5.77 µM) |  |  | 

Row | Structure (SMILES) | IC50 ([1]; Mus musculus, BaF3, 72 h) | IC50 [2] | solubility at 24 h [3, 4] | solubility at 24 h [3, 5] | IC50 ([1]; 72 h) | solubility pH 4.5 ([3]; McIlvaine buffer pH 4.5) | solubility pH 6.8 ([3]; McIlvaine buffer pH 6.8)
19 | C[C@H](Oc1cc(-n2cnc(C(=O)N(C)C)c2)nc(-c2noc3c2CCC[C@@]32CCCc3sc(N)c(C#N)c32)n1)[C@@H]1CCCN1C [II-126] | 211 nM | 7 nM | 0.123 mg/mL (≈ 196 µM) | 0.104 mg/mL (≈ 166 µM) |  |  | 
20 | C[C@H](Oc1cc(N2CCNC3(COC3)C2)nc(-c2noc3c2CCC[C@@]32CCCc3sc(N)c(C#N)c32)n1)[C@@H]1C[C@@H](F)CN1C [II-150] | 3 nM | 1 nM | > 0.149 mg/mL | 0.057 mg/mL (≈ 89.8 µM) |  |  | 
21 | C[C@H](Oc1cc(-c2cn(C)nn2)nc(-c2onc3c2CCC[C@@]32CCCc3sc(N)c(C#N)c32)n1)[C@@H]1CCCN1C [I-16] | 32 nM | 2 nM | > 0.118 mg/mL | 0.082 mg/mL (≈ 143 µM) |  |  | 
22 | C[C@H](Oc1cc(-c2ccn(C)n2)nc(-c2noc3c2CCC[C@@]32CCCc3sc(N)c(C#N)c32)n1)[C@@H]1C[C@H](F)CN1C [II-144] | 4 nM | 14 nM | 0.105 mg/mL (≈ 178 µM) | < 0.001 mg/mL |  |  | 
23 | C[C@H](Oc1cc(-n2cc3c(n2)CNC3)nc(-c2noc3c2CCC[C@@]32CCCc3sc(N)c(C#N)c32)n1)[C@@H]1CCCN1C [II-168] | 27 nM | 1 nM | > 0.139 mg/mL | > 0.128 mg/mL |  |  | 
24 | C[C@H](Oc1cc(-n2nccc2-c2ccncc2)nc(-c2noc3c2CCC[C@@]32CCCc3sc(N)c(C#N)c32)n1)[C@@H]1CCCN1C [II-131] | 145 nM | 6 nM |  |  |  |  | 
25 | C[C@H](Oc1nc(-c2noc3c2CCC[C@@]32CCCc3sc(N)c(C#N)c32)nc(N2C[C@H](C)NC3(CC3)C2)c1F)[C@@H]1C[C@@H](F)CN1C [II-157] | 17 nM | 1 nM | > 0.147 mg/mL | < 0.001 mg/mL |  |  | 
26 | C[C@H](Oc1cc(-n2ccc(-c3cn(CC4(C)COC4)nn3)n2)nc(-c2noc3c2CCC[C@@]32CCCc3sc(N)c(C#N)c32)n1)[C@@H]1CCCN1C [II-213] | 43 nM | 1 nM | 0.023 mg/mL (≈ 32.5 µM) | 0.002 mg/mL (≈ 2.83 µM) |  |  | 
27 | C[C@H](Oc1cc(-n2cc(-c3cncs3)nn2)nc(-c2noc3c2CCC[C@@]32CCCc3sc(N)c(C#N)c32)n1)[C@@H]1CCCN1C [II-125] | 109 nM | 6 nM | < 0.001 mg/mL | < 0.001 mg/mL |  |  | 
28 | CC(C)N1CCCN(c2cc(-n3ccnc3)nc(-c3noc4c3CCC[C@@]43CCCc4sc(N)c(C#N)c43)n2)[C@@H](C)C1 [II-169] | 285 nM | 9 nM | > 0.124 mg/mL | 0.013 mg/mL (≈ 22.3 µM) |  |  | 
29 | C[C@H](Oc1cc(-n2cc3ccn([C@@H](C)c4ccccn4)c(=O)c3n2)nc(-c2noc3c2CCC[C@@]32CCCc3sc(N)c(C#N)c32)n1)[C@@H]1CCCN1C [II-205] | 85 nM | 8 nM |  |  |  |  | 
30 | C[C@H](Oc1nc(-c2noc3c2CCC[C@@]32CCCc3sc(N)c(C#N)c32)nc(N2CCNC3(CC3)C2)c1Cl)[C@@H]1C[C@@H](F)CN1C [II-156] | 16 nM | 1 nM | > 0.142 mg/mL | < 0.001 mg/mL |  |  | 
31 | CO[C@@H]1C[C@@H]([C@H](C)Oc2cc(N3CCN(C)C4(COC4)C3)nc(-c3noc4c3CCC[C@@]43CCCc4sc(N)c(C#N)c43)n2)N(C)C1 [II-153] | 126 nM | 2 nM | > 0.135 mg/mL | 0.103 mg/mL (≈ 156 µM) |  |  | 
32 | CNC1CCN(c2cc(O[C@@H](C)[C@@H]3CCCN3C)nc(-c3noc4c3CCC[C@@]43CCCc4sc(N)c(C#N)c43)n2)CC1 [II-214] | 1710 nM | 1 nM | > 0.121 mg/mL | > 0.151 mg/mL |  |  | 
33 | C[C@H](Oc1cc(N2C[C@H](C)N(C)[C@@H](C)C2)nc(-c2noc3c2CCC[C@@]32CCCc3sc(N)c(C#N)c32)n1)[C@@H]1CCCN1C [II-173] | 51 nM | 1 nM | > 0.144 mg/mL | > 0.146 mg/mL |  |  | 
34 | C[C@@H]1CN(c2cc(O[C@@H](C)[C@@H]3CCCN3C)nc(-c3noc4c3CCC[C@@]43CCCc4sc(N)c(C#N)c43)n2)CCN1 [II-161] | 250 nM | 2 nM |  |  |  |  | 
35 | CO[C@@H]1C[C@@H]([C@H](C)Oc2cc(-c3cnn(C)n3)nc(-c3onc4c3CCC[C@@]43CCCc4sc(N)c(C#N)c43)n2)N(C)C1 [I-17] | 77 nM | 15 nM |  |  |  |  | 
